Assays:
[1] = target: recombinant human baculovirus-expressed AXL (Homo sapiens (Human), UniProt P30530); test: AXL Kinase Assay (HTRF KinEASE); assay type: biochemical; details: average of two or more determinations
[2] = target: recombinant human baculovirus-expressed cMET (Homo sapiens (Human), UniProt P08581); test: C-MET Kinase Assay (HTRF KinEASE); assay type: biochemical; details: average of two or more determinations; read-out: c-MET IC50
How it was run: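 HTRF KinEASE format with recombinant human baculovirus-expressed cMET at 8 ng/mL, biotinylated peptide at 0.1 μM and ATP at 0.02 μM. IC50 came from percent control activity versus log concentration, fitted by nonlinear regression to a variable-slope sigmoidal equation with bottom fixed at 0 and top at 100.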

SMILES	IC50 [1]	IC50 [2]
CCn1c(=O)c(C(=O)Nc2ccc(Oc3ccnc4cc(OC)c(OC)cc34)c(F)c2)cn(-c2ccc(F)cc2)c1=O [Example 91, 3-Ethyl-1-(4-fluoro-phenyl)-2,4-dioxo-1,2,3,4-tetrahydro-pyrimidine-5-carboxylic acid [4-(6,7-dimethoxy-quinolin-4-yloxy)-3-fluoro-phenyl]-amide]	< 10 nM	10 to 100 nM
COc1cc2nccc(Oc3ccc(NC(=O)c4nn(C)c(=O)n(-c5ccc(F)cc5)c4=O)cc3F)c2cc1OC [Example 104, 4-(4-Fluorophenyl)-2-methyl-3,5-dioxo-2,3,4,5-tetrahydro-[1,2,4]triazine-6-carboxylic acid [4-(6,7-dimethoxy-quinolin-4-yloxy)-3-fluoro-phenyl]-amide]	< 10 nM	< 10 nM
CCn1nc(C(=O)Nc2ccc(Oc3ccnc4cc(OC)c(OC)cc34)c(F)c2)c(=O)n(-c2ccc(F)cc2)c1=O [Example 105, 2-Ethyl-4-(4-fluoro-phenyl)-3,5-dioxo-2,3,4,5-tetrahydro-[1,2,4]triazine-6-carboxylic acid [4-(6,7-dimethoxy-quinolin-4-yloxy)-3-fluoro-phenyl]-amide]	< 10 nM	10 to 100 nM
CC(C)n1nc(C(=O)Nc2ccc(Oc3ccnc4cc5c(cc34)OCCO5)c(F)c2)c(=O)n(-c2ccc(F)cc2)c1=O [Example 106, 4-(4-Fluorophenyl)-2-isopropyl-3,5-dioxo-2,3,4,5-tetrahydro-[1,2,4]triazine-6-carboxylic acid [4-(2,3-dihydro-[1,4]dioxino[2,3-g]quinolin-9-yloxy)-3-fluorophenyl]-amide]	< 10 nM	10 to 100 nM
COc1cc2nccc(Oc3ccc(NC(=O)c4n[nH]c(=O)n(-c5ccc(F)cc5)c4=O)cc3F)c2cc1OC [Example 107, 4-(4-Fluoro-phenyl)-3,5-dioxo-2,3,4,5-tetrahydro-[1,2,4]triazine-6-carboxylic acid [4-(6,7-dimethoxy-quinolin-4-yloxy)-3-fluoro-phenyl]-amide]	< 10 nM	< 10 nM

Other lines, results leading:

IC50 [1]	IC50 [2]	SMILES
< 10 nM	10 to 100 nM	CCn1cc(C(=O)Nc2ccc(Oc3ccnc4cc(OC)c(OC)cc34)c(F)c2)c(=O)n(-c2ccccc2)c1=O [Example 100, 1-Ethyl-2,4-dioxo-3-phenyl-1,2,3,4-tetrahydro-pyrimidine-5-carboxylic acid [4-(6,7-dimethoxy-quinolin-4-yloxy)-3-fluoro-phenyl]-amide]
< 10 nM	10 to 100 nM	COc1cc2nccc(Oc3ccc(NC(=O)c4cn(C(C)C)c(=O)n(-c5ccccc5)c4=O)cc3F)c2cc1OC [Example 101, 1-Isopropyl-2,4-dioxo-3-phenyl-1,2,3,4-tetrahydro-pyrimidine-5-carboxylic acid [4-(6,7-dimethoxy-quinolin-4-yloxy)-3-fluoro-phenyl]-amide]
< 10 nM	< 10 nM	CCCn1cc(C(=O)Nc2ccc(C(=O)c3ccnc4cc(OC)c(OC)cc34)c(F)c2)c(=O)n(-c2ccc(F)cc2)c1=O [Example 102, 3-(4-Fluoro-phenyl)-2,4-dioxo-1-propyl-1,2,3,4-tetrahydro-pyrimidine-5-carboxylic acid [4-(6,7-dimethoxy-quinoline-4-carbonyl)-3-fluoro-phenyl]-amide]
< 10 nM	10 to 100 nM	COc1cc2nccc(Oc3ccc(NC(=O)c4nn(C(C)C)c(=O)n(-c5ccc(F)cc5)c4=O)cc3F)c2cc1OC [Example 103, 4-(4-Fluoro-phenyl)-2-isopropyl-3,5-dioxo-2,3,4,5-tetrahydro-[1,2,4]triazine-6-carboxylic acid [4-(6,7-dimethoxy-quinolin-4-yloxy)-3-fluoro-phenyl]-amide]
< 10 nM	< 10 nM	COc1cc2nccc(Oc3ccc(NC(=O)c4nn(CCO)c(=O)n(-c5ccc(F)cc5)c4=O)cc3F)c2cc1OC [Example 108, 4-(4-Fluorophenyl)-2-(2-hydroxyethyl)-3,5-dioxo-2,3,4,5-tetrahydro-[1,2,4]triazine-6-carboxylic acid [4-(6,7-dimethoxyquinolin-4-yloxy)-3-fluorophenyl]-amide]

— US9745283B2, “Uracil derivatives as AXL and c-MET kinase inhibitors” (priority 2011, dated 2017)
